From patent US20090176817A1, “Method of Treatment of Diarrhea-Predominant Irritable Bowel Syndrome in a Subject” (priority 2005, published 2009)

Columns and labels:
human P-glycoprotein = target: T1, human P-glycoprotein (Homo sapiens, UniProt P08183); assay: Study K.241.6026: in vitro transport by P-glycoprotein in PK 1 LLC MDR cells; assay type: in vitro ADME; conditions: arithmetic mean percentages transported, 3 hours of incubation
T1 construct: expressed in transfected cells; host or cells: PK 1 LLC MDR cells (LLC-PK1 porcine kidney cells expressing human MDR1, by own knowledge)
T1 sequence (P08183 whole entry): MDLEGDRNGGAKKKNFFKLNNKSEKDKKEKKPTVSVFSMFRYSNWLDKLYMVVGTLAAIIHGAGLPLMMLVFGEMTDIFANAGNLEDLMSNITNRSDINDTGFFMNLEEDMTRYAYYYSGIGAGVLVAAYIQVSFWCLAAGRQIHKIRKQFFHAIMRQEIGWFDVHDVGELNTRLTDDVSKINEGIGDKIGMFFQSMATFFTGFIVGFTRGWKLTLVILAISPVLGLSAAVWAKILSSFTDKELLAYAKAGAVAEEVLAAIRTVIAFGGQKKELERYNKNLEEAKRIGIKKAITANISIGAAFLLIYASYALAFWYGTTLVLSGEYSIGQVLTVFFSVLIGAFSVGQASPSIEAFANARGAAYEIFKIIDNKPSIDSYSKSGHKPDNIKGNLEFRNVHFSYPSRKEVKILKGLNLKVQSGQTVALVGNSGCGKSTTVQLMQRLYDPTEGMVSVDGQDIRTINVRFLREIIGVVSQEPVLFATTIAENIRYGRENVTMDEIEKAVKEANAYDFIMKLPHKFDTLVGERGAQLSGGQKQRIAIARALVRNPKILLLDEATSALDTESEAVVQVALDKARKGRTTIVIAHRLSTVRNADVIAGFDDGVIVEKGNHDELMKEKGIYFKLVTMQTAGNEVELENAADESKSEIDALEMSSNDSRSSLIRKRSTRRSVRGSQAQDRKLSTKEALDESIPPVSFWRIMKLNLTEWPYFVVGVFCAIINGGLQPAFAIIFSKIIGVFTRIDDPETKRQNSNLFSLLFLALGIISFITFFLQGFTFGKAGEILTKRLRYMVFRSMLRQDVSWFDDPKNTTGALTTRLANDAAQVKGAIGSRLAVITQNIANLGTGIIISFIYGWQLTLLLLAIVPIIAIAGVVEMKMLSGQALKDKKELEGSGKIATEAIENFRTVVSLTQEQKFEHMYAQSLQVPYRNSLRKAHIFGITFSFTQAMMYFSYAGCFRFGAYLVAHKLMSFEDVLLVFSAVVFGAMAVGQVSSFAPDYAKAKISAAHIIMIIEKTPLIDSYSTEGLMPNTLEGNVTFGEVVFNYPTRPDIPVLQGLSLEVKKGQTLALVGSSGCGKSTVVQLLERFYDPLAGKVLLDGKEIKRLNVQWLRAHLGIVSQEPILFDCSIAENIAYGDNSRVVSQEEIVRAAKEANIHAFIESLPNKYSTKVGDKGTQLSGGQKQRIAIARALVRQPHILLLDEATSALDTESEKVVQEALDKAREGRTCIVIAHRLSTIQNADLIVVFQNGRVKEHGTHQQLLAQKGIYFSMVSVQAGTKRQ

[1] = Study S.241.1.103: 14C mass balance, 8 mg oral and IV; assay type: in vivo, human
Procedure: The extent of absorption, distribution, metabolism, and elimination of cilansetron has been examined in an open-label, randomized, two period, crossover, mass balance study in 6 healthy male subjects who were treated with a single oral and single […] (30-minute infusion) of 8 mg ^14C-labeled (50 K μCi) cilansetron, with a washout of at least 2 weeks between periods. The ^14C-cilansetron was appropriately labeled in the aromatic ring and the label was therefore not metabolically labile. Serial blood samples, urine collection, and fecal collection were performed up to 144 hours following each dose. ^14C-radioactivity was measured in plasma, whole blood, urine, and feces, and unchanged cilansetron was measured in plasma and urine. Identification of metabolites of cilansetron was performed in plasma, urine, and feces. The results of this study are presented in Table 2.7.2.3.15 and the mean concentration-time plots for ^14C-radioactivity and unchanged cilansetron are shown in FIG. 24 and FIG. 25.
Cilansetron and metabolite profiles in plasma, urine, and feces were evaluated using HPLC separation followed by determination of radioactivity using scintillation counting. Cilansetron, (4R)-hydroxy cilansetron, and (4S)-hydroxy cilansetron accounted for 29.3%, 25.7%, and 13.8% of the total radioactivity, respectively, in plasma at 6 hours after oral administration, and for 46.2%, 20.0% and 14.1%3 of the total radioactivity in plasma at 3 hours after IV administration. The cumulative percent of cilansetron and 4-hydroxy metabolites excreted in urine over a 48-hour interval following dosing was 0.5% and 32.8% of the dose, respectively, following oral dosing, and 1.1% and 31.9% of the dose following IV dosing. In the case of fecal excretion over a 96-hour postdose, cilansetron, (4R)-hydroxy cilansetron, and (4S)-hydroxy cilansetron accounted for 1.2%, 6.9%, and 4.6% of the dose following oral administration, and 1.3%, 5.1%, and 11.3% of the dose following IV administration.

[2] = Study S.241.2.112: population pharmacokinetics (NONMEM) in IBS patients; assay type: in vivo, human; conditions: for CL/F / T½ / predicted steady-state AUC(0-τ) / predicted steady-state Cmax: IBS patients; for CL/F / T½: Bayesian estimates, population PK model, arith. mean; for predicted steady-state AUC(0-τ) / predicted steady-state Cmax: covariate population PK model, mean (SD)
Procedure: The pharmacokinetics and pharmacodynamics of cilansetron following multiple oral administration in non-constipated IBS patients have been examined in a population pharmacokinetic (NONMEM) analysis of a Phase II trial. The study was a double-blind, placebo-controlled, randomized, multi-center, parallel-group, dose ranging study to investigate the Efficacy and safety of four different doses of cilansetron (1 mg, 2 mg, 8 mg, and 16 mg TID) in patients with established IBS (non-constipated patients who suffered from IBS according to the Rome Criteria and were not bothered by constipation for >25% of their IBS episodes). The study was to be performed in approximately 50 centers. A sufficient number of patients were to be recruited to insure that at least 88 patients per treatment group were evaluable for efficacy and to get a total of 440 completers. […] There were interim assessments at the end of the 4th week (Visit 3; Day 29) and 8th week (Visit 4; Day 57) and a final assessment at the end of the 12th week (Visit 5; poststudy). Single blood samples for population pharmacokinetic analyses were drawn at Visits 3, 4, 5 or early termination, at 31 of the participating sites. With the exception of Visit 3, the timing of the blood draw in relation to the previous dose was not specified for any of the samples collected, but the time of sampling and the time of last dosing was recorded for each sample collected. For Visit 3, the blood sample had to be taken between 15 minutes and 2 hours of the morning or midday dose.
Various covariates were screened during development of the population pharmacokinetic model, including age, height, weight, body surface area, body mass index, race, gender, smoking status, serum creatinine levels, serum creatinine clearance, total bilirubin levels, cilansetron dose, and concomitant medication usage. Some efficacy and safety parameters were also evaluated in this population analysis using correlation analyses. Efficacy parameters evaluated included overall relief of IBS symptoms (Responder or Non-Responder), intensity of abdominal pain, number of stools and stool consistency, symptoms of abdominal and rectal discomfort (straining, urgency, feeling of incomplete defecation, passage of mucus, bloating, and feeling of abdominal distension), and upper GI symptoms at Visit 5 (vomiting, heartburn, early satiety, postprandial fullness, sensation of prolonged digestion, and nausea). Safety parameters evaluated included the top ten most frequently observed adverse events (constipation, flatulence, nausea, abdominal pain, headache, dyspepsia, infection, gastrointestinal disorders, anorexia, and diarrhea).
The population analysis included data from 160 patients (63 males and 97 females) with a median age of 45.5 years (range: 20-81 years), median weight of 78 kg (range: 47-121 kg), and median height of 170 cm (range: 147-196 cm). More than 90% of the patients were White and 18.8% of the patients were considered smokers. […] A total of 392 quantifiable concentrations for cilansetron, 393 quantifiable concentrations for (4S)-hydroxy cilansetron, and 397 quantifiable concentrations for (4R)-hydroxy cilansetron from 160 patients were included in the NONMEM datasets for population analyses.
FIG. 54, FIG. 55, and FIG. 56 present mean steady-state plasma concentration-time profiles for cilansetron and its 4-hydroxy metabolites, and Table 2.7.2.3.29 and Table 2.7.2.3.30 present descriptive statistics for the estimated pharmacokinetic parameters of cilansetron and its 4-hydroxy metabolites from the final covariate population pharmacokinetic model. The cilansetron concentration data were best described by a one-compartment model with first-order input, an absorption lag time, and first-order elimination. A log-normal distribution was used to describe the variability of clearance, volume of distribution and absorption rate constant between patients. The residual error was best described by an exponential model. […]

SMILES: Cc1nccn1CC1CCc2c(c3cccc4c3n2CC[C@H]4O)C1=O (stereo partly drawn) [(4R)-hydroxy cilansetron]
- Membrane Passage (human P-glycoprotein): 14%
- Share of total radioactivity in plasma ([1]; 3 hours after IV administration): 20.0%
- Share of total radioactivity in plasma ([1]; 6 hours after oral administration): 25.7%
- Fecal excretion over 96 hours ([1]; IV): 5.1 % of the dose
- Fecal excretion over 96 hours ([1]; oral): 6.9 % of the dose
- CL/F ([2]; cilansetron 1 mg TID): 234 L/h
- T½ ([2]; cilansetron 1 mg TID): 9.55 h
- predicted steady-state AUC(0-τ) ([2]; cilansetron 1 mg TID): 6.42 (1.40) ng · h/mL
- predicted steady-state Cmax ([2]; cilansetron 1 mg TID): 1.05 (0.19) ng/mL
- CL/F ([2]; cilansetron 2 mg TID): 232 L/h
- T½ ([2]; cilansetron 2 mg TID): 9.56 h
- predicted steady-state AUC(0-τ) ([2]; cilansetron 2 mg TID): 13.0 (2.64) ng · h/mL
- predicted steady-state Cmax ([2]; cilansetron 2 mg TID): 2.17 (0.37) ng/mL
- CL/F ([2]; cilansetron 8 mg TID): 229 L/h
- T½ ([2]; cilansetron 8 mg TID): 9.79 h
- predicted steady-state AUC(0-τ) ([2]; cilansetron 8 mg TID): 53.0 (10.1) ng · h/mL
- predicted steady-state Cmax ([2]; cilansetron 8 mg TID): 8.56 (1.70) ng/mL
- CL/F ([2]; cilansetron 16 mg TID): 232 L/h
- T½ ([2]; cilansetron 16 mg TID): 9.80 h
- predicted steady-state AUC(0-τ) ([2]; cilansetron 16 mg TID): 98.6 (18.8) ng · h/mL
- predicted steady-state Cmax ([2]; cilansetron 16 mg TID): 16.7 (3.0) ng/mL
- Increase of apparent oral clearance per 1 mL/min creatinine clearance ([2]; population model): 0.447 L/h
